{"source": "PubChem BioAssay AID652", "about": "(University of Pittsburgh Molecular Library Screening Center, 2007)", "note": "Calls of active or inactive are those of the source. The rule behind the calls is not given here.", "data": [{"biological_target": "Gag-Pol polyprotein (Human immunodeficiency virus type 1 group M subtype B (isolate HXB2)) (UniProt P04585)", "test": "HIV-1 RT RNase H inhibitor potency, dose response, biochemical, probe assessment (AID 652)", "details": "HIV-1 RT RNase H enzymatic assay", "values": [{"smiles": "COc1ccc(C(=S)N(C)C)cc1OC", "IC50": "3.61 µM"}, {"smiles": "CCCCn1c(CN2C(=O)c3ccccc3C2=O)nc2ccccc2c1=O", "IC50": "12.4 µM"}, {"smiles": "O=C1C=Cc2ccccc2C1=O", "IC50": "2.64 µM"}, {"smiles": "O=c1/c(=C/c2ccccn2)sc2nc3ccccc3n12", "IC50": "14.6 µM"}, {"smiles": "CN1CCN(C2=C(Cl)C(=O)N(c3ccc(Cl)c(Cl)c3)C2=O)CC1", "IC50": "27.1 µM"}, {"smiles": "N#CC1=C(N)SC(N)=C(C#N)C1c1ccnc2ccccc12", "IC50": "13.7 µM"}, {"smiles": "COc1ccc(C2C(C#N)=C(N)N3C(=C2C#N)Sc2ccccc23)cc1", "note": "(configuration not stated)", "IC50": "3.35 µM"}, {"smiles": "CSc1ccc(C2C(C#N)=C(N)Oc3c2ccc(=O)c2c(C)oc(C)c32)cc1", "note": "(configuration not stated)", "IC50": "5.81 µM"}, {"smiles": "Cc1ccccc1N1C(=O)c2sc3nc4c(c(=O)n3c2C1=O)CCC4", "IC50": "2.37 µM"}, {"smiles": "C1=C(c2ccc(-c3ccccc3)cc2)Nc2ncnn2C1c1ccco1", "note": "(configuration not stated)", "IC50": "14.5 µM"}, {"smiles": "O=C(COc1ccc(Cl)cc1)Nc1nnc(-c2ccc3c(c2)CCCC3)o1", "IC50": "4.49 µM"}, {"smiles": "N#Cc1c(-c2cccnc2)c2c([nH]c1=S)CCCC2", "IC50": "10.2 µM"}, {"smiles": "O=C(Nc1nc(-c2ccncc2)cs1)C1COc2ccccc2O1", "note": "(configuration not stated)", "IC50": "> 50 µM (inactive)"}]}, {"biological_target": "Gag-Pol polyprotein (Human immunodeficiency virus type 1 group M subtype B (isolate HXB2)) (UniProt P04585)", "test": "HIV-1 RT RNase H inhibitor potency, dose response, biochemical, probe assessment (AID 652)", "details": "HIV-1 RT RNase H enzymatic assay, inhibition, at 50 µM, stronger effect = higher value", "units": {"inhibition": "%"}, "values": [{"smiles": "COc1ccc(-c2nsc(SCC(=O)Nc3cc(C)on3)n2)cc1", "inhibition": 96.6}, {"smiles": "COc1ccc(C(=S)N(C)C)cc1OC", "inhibition": 78.6}, {"smiles": "COc1cccc(OCC(=O)Nc2c(C(=O)Nc3ccc(OC)cc3OC)oc3ccccc23)c1", "inhibition": 88.5}, {"smiles": "O=c1cc(CN2CCN(c3ccccc3)CC2)c2cc(O)c(-c3ccccc3)cc2o1", "inhibition": 96.1}, {"smiles": "CCCCn1c(CN2C(=O)c3ccccc3C2=O)nc2ccccc2c1=O", "inhibition": 98}, {"smiles": "O=C1C=Cc2ccccc2C1=O", "inhibition": 97.7}, {"smiles": "CCOC(=O)c1c(C)[nH]c(C(=O)CSc2nc3ccccc3o2)c1C", "inhibition": 93.7}, {"smiles": "O=c1/c(=C/c2ccccn2)sc2nc3ccccc3n12", "inhibition": 89.2}, {"smiles": "C=CCn1c(N)c(C(=O)NCCC2=CCCCC2)sc1=S", "inhibition": 85.9}, {"smiles": "O=C(Cn1c(=O)oc2cc(S(=O)(=O)N3CCCC3)ccc21)NC1CCCc2ccccc21", "note": "(configuration not stated)", "inhibition": 58.8}, {"smiles": "O=C(NCCc1ccccc1)c1c(O)c2cccc3c2n(c1=O)CC3", "inhibition": 67.7}, {"smiles": "Cc1ccccc1NC(=O)c1c(O)c2cccc3c2n(c1=O)CC3", "inhibition": 84.6}, {"smiles": "CN1CSC2=C(C#N)C(c3cccc(OCc4ccccc4)c3)CC(=O)N2C1", "note": "(configuration not stated)", "inhibition": 89.7}, {"smiles": "CN1CCN(C2=C(Cl)C(=O)N(c3ccc(Cl)c(Cl)c3)C2=O)CC1", "inhibition": 61.9}, {"smiles": "CC(=O)c1cccc(NC(=O)c2cc(-c3ccc(C)cc3)on2)c1", "inhibition": 95.8}, {"smiles": "Cc1ccc(-n2nc(C)c3c2NC(=O)CSC3c2ccc3c(c2)OCO3)cc1", "note": "(configuration not stated)", "inhibition": 89.4}, {"smiles": "Fc1ccc(-c2ccc(-c3nn4c(-c5ccco5)nnc4s3)o2)cc1", "inhibition": 88}, {"smiles": "Cc1cc(C)c(NC(=O)Cn2c(=O)n(Cc3ccco3)c(=O)c3ccccc32)c(C)c1", "inhibition": 76.8}, {"smiles": "CCOC(=O)c1sc(NC(=O)CSc2nnc(Cc3ccccc3)o2)c(C#N)c1C", "inhibition": 98.3}, {"smiles": "COc1ccc(N2CCN(Cc3cc(=O)oc4cc5c(cc34)CCCC5)CC2)cc1", "inhibition": 88.8}, {"smiles": "COc1ccc(OC)c(CCNC(=O)Cn2sc3nc(C)cc(C)c3c2=O)c1", "inhibition": 91.6}, {"smiles": "Cc1cccc(Nc2n[nH]c(=S)s2)c1C", "inhibition": 96.9}, {"smiles": "CCC1(C)Cc2c(sc3c2c(=O)n(C)c2nnc(SCc4ccc5c(c4)OCO5)n32)CO1", "note": "(configuration not stated)", "inhibition": 96.2}, {"smiles": "CC(C)c1ccc(C2CC(=O)N3CN(C)CSC3=C2C#N)cc1", "note": "(configuration not stated)", "inhibition": 86.9}, {"smiles": "O=c1c2ccccc2sn1-c1cc(S(=O)(=O)N2CCOCC2)ccc1N1CCOCC1", "inhibition": 84.4}, {"smiles": "C=CCNC(=O)c1c(N)n(-c2ccc3c(c2)OCO3)c2nc3ccccc3nc12", "inhibition": 55.2}, {"smiles": "Cc1cc(C)cc(OCC(=O)Nc2nonc2NC(=O)COc2cc(C)cc(C)c2)c1", "inhibition": 88}, {"smiles": "Cc1nc(-c2cccc(S(=O)(=O)N3CCOCC3)c2)cs1", "inhibition": 96.4}, {"smiles": "N#CC1=C(N)SC(N)=C(C#N)C1c1ccnc2ccccc12", "inhibition": 70.4}, {"smiles": "COc1cc(-c2nnc3sc(Cc4ccc(Cl)cc4)nn23)cc(OC)c1OC", "inhibition": 96.4}, {"smiles": "Cc1ccc(-c2cc(C(=O)NC3=NCCS3)c3cc(Br)ccc3n2)o1", "inhibition": 92.4}, {"smiles": "O=C(NC1CCS(=O)(=O)C1)c1c(NC(=O)C2COc3ccccc3O2)sc2c1CCCC2", "note": "(configuration not stated)", "inhibition": 88.4}, {"smiles": "CCCc1cc(C(=O)Nc2sc(C)c(C)c2C(=O)OCC)no1", "inhibition": 98}, {"smiles": "COc1ccc(C2C(C#N)=C(N)N3C(=C2C#N)Sc2ccccc23)cc1", "note": "(configuration not stated)", "inhibition": 92}, {"smiles": "c1ccc2c(c1)nnn2Cc1nnc2sc(-c3ccncc3)nn12", "inhibition": 90.6}, {"smiles": "C=CCn1c(SCC(=O)NC(=O)NCc2ccco2)nc2sc(C)c(C)c2c1=O", "inhibition": 83.8}, {"smiles": "CCn1c(SCC(=O)c2ccc(O)c(O)c2)nnc1-c1ccccc1OC", "inhibition": 98.4}, {"smiles": "COc1ccc(N2CSC3=C(C#N)C(c4cc(OC)ccc4OC)CC(=O)N3C2)c(OC)c1", "note": "(configuration not stated)", "inhibition": 93.9}, {"smiles": "CN(C)c1ccc2c(c1)N=C(c1ccco1)OP2(=S)N1CCOCC1", "note": "(configuration not stated)", "inhibition": 92.9}, {"smiles": "O=C(NCc1ccco1)c1cccnc1-c1nc2ccccc2s1", "inhibition": 93.7}, {"smiles": "c1cncc(-c2nn3c(Cn4cnc5ccccc54)nnc3s2)c1", "inhibition": 85.4}, {"smiles": "CSc1ccc(C2C(C#N)=C(N)Oc3c2ccc(=O)c2c(C)oc(C)c32)cc1", "note": "(configuration not stated)", "inhibition": 77.4}, {"smiles": "CCOC(=O)C(C(C)=O)c1c(Br)c(O)c(O)c2c(C(=O)c3ccc(C)cc3)coc12", "note": "(configuration not stated)", "inhibition": 86.7}, {"smiles": "COc1ccc2ccccc2c1C1CC(=O)N2CN(C3CCCCC3)CSC2=C1C#N", "note": "(configuration not stated)", "inhibition": 92.3}, {"smiles": "CCCCCCNC(=O)c1c(N)n(/N=C/c2ccco2)c2nc3ccccc3nc12", "inhibition": 98.3}, {"smiles": "O=C(NCc1ccco1)c1cc2cc3ccc(Cl)cc3nc2o1", "inhibition": 91.6}, {"smiles": "Cc1cc(C)c2c(=O)n(CC(=O)N3CCC(N4CCCCC4)CC3)sc2n1", "inhibition": 60.1}, {"smiles": "N#Cc1c(NC(=O)CN2CCN(S(=O)(=O)c3ccc4c(c3)OCCO4)CC2)sc2c1CCC2", "inhibition": 81.9}, {"smiles": "CCOC(=O)c1c(N)sn(-c2ccccc2C)c1=S", "inhibition": 83.4}, {"smiles": "O=C(CCN1C(=O)c2ccccc2C1=O)Nc1ccc(-c2nc3ccccc3o2)cc1", "inhibition": 92.1}, {"smiles": "Cc1ccccc1N1C(=O)c2sc3nc4c(c(=O)n3c2C1=O)CCC4", "inhibition": 98.7}, {"smiles": "O=c1/c(=C\\c2cccn2-c2ccccc2)sc2nc3ccccc3n12", "inhibition": 92}, {"smiles": "CCOc1cc(C2c3c(oc4cc(C)c(Cl)cc4c3=O)C(=O)N2Cc2ccco2)ccc1O", "note": "(configuration not stated)", "inhibition": 76.5}, {"smiles": "C1=C(c2ccc(-c3ccccc3)cc2)Nc2ncnn2C1c1ccco1", "note": "(configuration not stated)", "inhibition": 48.6}, {"smiles": "O=C(COc1ccc(Cl)cc1)Nc1nnc(-c2ccc3c(c2)CCCC3)o1", "inhibition": 83.7}, {"smiles": "COc1cc(-c2nn3c(Cc4ccccc4)nnc3s2)cc(OC)c1OC", "inhibition": 86}, {"smiles": "COc1ccc(N2CCN(Cc3cc(=O)oc4cc(C)c(Cl)c(C)c34)CC2)cc1", "inhibition": 96}, {"smiles": "CCOC(=O)N1CCc2c(sc3c2C(=O)NC(c2ccc(-c4ccc(Cl)cc4)o2)N3)C1", "note": "(configuration not stated)", "inhibition": 94.3}, {"smiles": "N#Cc1c(-c2cccnc2)c2c([nH]c1=S)CCCC2", "inhibition": 77.9}, {"smiles": "O=C(O)c1cc(S(=O)(=O)Nc2ccc3oc(=O)sc3c2)ccc1O", "inhibition": 88.2}, {"smiles": "O=C(Nc1nc(-c2ccncc2)cs1)C1COc2ccccc2O1", "note": "(configuration not stated)", "inhibition": 92.5}, {"smiles": "CCCc1cc(C(=O)Nc2sc3c(c2C#N)CCC3)no1", "inhibition": 92.6}, {"smiles": "CCOC(=O)CSc1nc2cc(C(=O)NCc3ccco3)ccc2c(=O)n1C1CCCCC1", "inhibition": 89}, {"smiles": "CC1CCc2c(sc(NC(=O)c3ccc(Cn4cc(Br)cn4)o3)c2C(N)=O)C1", "note": "(configuration not stated)", "inhibition": 76.3}, {"smiles": "CCOC(=O)c1c(NC(=O)c2ccc(-n3cnnn3)cc2)sc2c1CCCC2", "inhibition": 88.3}, {"smiles": "CC(C)c1nc2sc3c(SCC(=O)NCc4ccco4)ncnc3c2c2c1CCC2", "inhibition": 94.1}, {"smiles": "Cc1cc(NC(=O)CSc2nc(C3CC3)nc3sc4c(c23)CCC(C)C4)no1", "note": "(configuration not stated)", "inhibition": 94.1}, {"smiles": "C=CCn1c(=O)c(C(=O)Nc2nnc(C)s2)c(O)c2ccccc21", "inhibition": 84.5}, {"smiles": "COc1ccc(Br)cc1C1CC(=O)N2CN(C)CSC2=C1C#N", "note": "(configuration not stated)", "inhibition": 84.1}, {"smiles": "CCCN(CCC)S(=O)(=O)c1ccc(C(=O)Nc2nnc(-c3cccc(OC)c3)o2)cc1", "inhibition": 87.4}, {"smiles": "COc1ccc(CC(=O)Nc2ccc(-c3noc(-c4cccc(OC)c4)n3)cc2)cc1", "inhibition": 85.5}, {"smiles": "COC(=O)c1ccc2c(=O)n(Cc3ccco3)c(SCC(=O)Nc3ccc(C)c(Cl)c3)nc2c1", "inhibition": 92.1}, {"smiles": "CCOC(=O)CSc1nc2cc(C(=O)NCc3ccco3)ccc2c(=O)n1-c1ccc(F)cc1", "inhibition": 91.8}, {"smiles": "O=C(c1ccc2c3c(cccc13)C(=O)N(O)C2=O)N1CCCCC1", "inhibition": 91.7}]}]}
